Assay results taken from PubChem BioAssay AID1919015 (Molecular Pharmacology Branch, DTP, NCI, 2023).

Test system: OVCAR-5 complex spheroids with HUVEC/MSC, viability, % test/control
Experiment: Anticancer human tumor OVCAR-5 cell line growth inhibition [AhR];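 further: spheroids exposed to compounds for 7 days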;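 on viability, T/C: 100% = DMSO vehicle control wells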
Conditions: for IC50: curve of first compound; for viability, T/C: stronger effect = lower value
Excerpt: Multicellular complex tumor spheroid response to aryl hydrocarbon receptor antagonists in combination with a variety of drugs and investigational agents in selected tumor cell lines
The current study was undertaken to assess response to aryl hydrocarbon receptor antagonists in combination with standard-of-care drugs and investigational agents in solid tumor complex spheroid models. Complex spheroids include a stromal component modeled by human endothelial cells (HUVEC) and fibroblasts modeled by human mesenchymal stem cells (MSCs). The concentration ranges selected for each drug and investigational agent were based upon clinically achievable concentrations if the clinical Cmax of the agent was known.
Compounds. The drugs and investigational agents: BAY 2416964 (NSC825713), GNF351 (NSC835774), CH-223191 (NSC835775), CPI-455 (NSC825282), aza-TdCyd (NSC777586), decitabine (NSC127716), belinostat (NSC758774), entinostat (NSC756642), pevonedistat (NSC761192), tazemetostat (NSC777109), talazoparib (NSC765396), olaparib (NSC753686), selinexor (NSC780203), nedisertib (M3814, NSC802822), bortezomib (NSC756655), venetoclax (NSC766270), doxorubicin (NSC123127), elimusertib (BAY189344, NSC800525), ceralasertib (AZD6738, NSC777638), TAK-243 (NSC785004), alisertib (NSC759677), etoposide (NSC141540), topotecan (NSC609699), eribulin (NSC707389), gemcitabine (NSC613327), carboplatin (NSC241240), cisplatin (NSC119875), and SN-38 (NSC673596) were obtained from the National Cancer Institute (NCI) Developmental Therapeutics Program Chemical Repository (32). The FDA-approved anticancer drug set is available from the Developmental Therapeutics Program at https://dtp.cancer.gov/organization/dscb/obtaining/available plates.htm. […] The stock solutions were prepared in dimethyl sulfoxide (DMSO, Sigma-Aldrich, St. Louis, MO, cat. D2650), except for the platinum compounds which were prepared in saline (Quality Biological, Gaithersburg, MD, cat. 114-055-101), at 800-fold the tested concentration and stored at -70 degrees C prior to their use. All drugs and investigational agents were tested over a range starting from a high concentration at or near the clinical Cmax and decreasing in half-log increments. If the clinical Cmax for an agent had not been determined, the highest concentration tested was 10 microM (Table 1).
Cell Culture. All cells were maintained in an incubator at 37 degrees C and 5% CO2 with 95% humidity. The PDC lines were cultured according to standard operating procedures established by the NCI PDMR (https://pdmr.cancer.gov). Briefly, all PDCs were thawed and cultured in Matrigel-coated flasks prepared with a working solution of 1X Ham's F-12 nutrient mix, without supplementation (Invitrogen, Waltham, MA, cat. 11765054), 100 U/mL penicillin-streptomycin (Invitrogen, cat. 15140122), and 2.5% Matrigel (Corning Inc., Corning, NY, cat. 354248) for the first three passages. All PDCs were cultured in complete DMEM/F-12 media containing advanced DMEM/F-12 (Invitrogen, cat. 12634028), 4.9% defined fetal bovine serum, heat inactivated (HyClone Laboratories Inc., Logan, UT, cat. SH30070.03HI), 389 ng/mL hydrocortisone (Sigma-Aldrich, cat. H4001), 9.7 ng/mL human EGF recombinant protein (Invitrogen, cat. PHG0313), 23.4 microg/mL adenine (Sigma-Aldrich, cat. A2786), 97.3 U/mL penicillin-streptomycin (Invitrogen, cat. 15140122), 1.9 mM L-glutamine (Invitrogen, cat. 25030081), and 9.7 microM Y-27632 dihydrochloride (Tocris Bioscience, Bristol, United Kingdom, cat. 1254). The PDCs were cultured in complete DMEM/F12 media without 10 microM Y-27632 dihydrochloride for at least two passages prior to the screen. The established cell lines NCI-H1341 and […] were cultured in DMEM/F-12, HEPES (Invitrogen, cat. 11330032), 5% defined fetal bovine serum (HyClone Laboratories Inc., cat. SH30070.03), ITS premix universal culture supplement [insulin (5 microg/mL), transferrin (5 microg/mL), and selenious acid (5 ng/mL)] […]

[1] = second compound 0.1 µM, first compound 0.0316 µM
[2] = second compound 0.1 µM, first compound 0.1 µM
[3] = second compound 0.1 µM, first compound 0.316 µM
[4] = second compound 0.1 µM, first compound 1 µM
[5] = second compound 0.1 µM, first compound 3.16 µM
[6] = second compound 0.1 µM, first compound 10 µM
[7] = second compound 0.316 µM, first compound 0.0316 µM
[8] = second compound 0.316 µM, first compound 0.1 µM
[9] = second compound 0.316 µM, first compound 0.316 µM
[10] = second compound 0.316 µM, first compound 1 µM
[11] = second compound 0.316 µM, first compound 3.16 µM
[12] = second compound 0.316 µM, first compound 10 µM
[13] = second compound 1 µM, first compound 0.0316 µM
[14] = second compound 1 µM, first compound 0.1 µM
[15] = second compound 1 µM, first compound 0.316 µM
[16] = second compound 1 µM, first compound 1 µM
[17] = second compound 1 µM, first compound 3.16 µM
[18] = second compound 1 µM, first compound 10 µM
[19] = second compound 3.16 µM, first compound 0.0316 µM
[20] = second compound 3.16 µM, first compound 0.1 µM
[21] = second compound 3.16 µM, first compound 0.316 µM
[22] = second compound 3.16 µM, first compound 1 µM
[23] = second compound 3.16 µM, first compound 3.16 µM
[24] = second compound 3.16 µM, first compound 10 µM
[25] = second compound 10 µM, first compound 0.0316 µM
[26] = second compound 10 µM, first compound 0.1 µM
[27] = second compound 10 µM, first compound 0.316 µM
[28] = second compound 10 µM, first compound 1 µM
[29] = second compound 10 µM, first compound 3.16 µM
[30] = second compound 10 µM, first compound 10 µM

SMILES: CC(C)CC(NC(=O)C(Cc1ccccc1)NC(=O)c1cnccn1)B(O)O (stereo not given) + CC(CO)NC(=O)c1cc(-c2ccc(Cl)cc2)nn(-c2cnn(C)c2)c1=O
- IC50 (second compound 0.1 µM): 0.0233 µM
- IC50 (second compound 0.316 µM): 0.0238 µM
- IC50 (second compound 1 µM): 0.0242 µM
- IC50 (second compound 3.16 µM): 0.0221 µM
- IC50 (second compound 10 µM): 0.0203 µM
- viability, T/C (second compound 0.1 µM, first compound 0.000949 µM): 101%
- viability, T/C (second compound 0.1 µM, first compound 0.003 µM): 111%
- viability, T/C (second compound 0.1 µM, first compound 0.00949 µM): 90.8%
- viability, T/C (second compound 0.1 µM, first compound 0.03 µM): 38.2%
- viability, T/C (second compound 0.1 µM, first compound 0.0949 µM): 18.2%
- viability, T/C (second compound 0.1 µM, first compound 0.3 µM): 11%
- viability, T/C (second compound 0.316 µM, first compound 0.000949 µM): 104%
- viability, T/C (second compound 0.316 µM, first compound 0.003 µM): 112%
- viability, T/C (second compound 0.316 µM, first compound 0.00949 µM): 89.6%
- viability, T/C (second compound 0.316 µM, first compound 0.03 µM): 39.1%
- viability, T/C (second compound 0.316 µM, first compound 0.0949 µM): 20%
- viability, T/C (second compound 0.316 µM, first compound 0.3 µM): 8.57%
- viability, T/C (second compound 1 µM, first compound 0.000949 µM): 107%
- viability, T/C (second compound 1 µM, first compound 0.003 µM): 111%
- viability, T/C (second compound 1 µM, first compound 0.00949 µM): 95%
- viability, T/C (second compound 1 µM, first compound 0.03 µM): 39.1%
- viability, T/C (second compound 1 µM, first compound 0.0949 µM): 20.5%
- viability, T/C (second compound 1 µM, first compound 0.3 µM): 11.5%
- viability, T/C (second compound 3.16 µM, first compound 0.000949 µM): 96%
- viability, T/C (second compound 3.16 µM, first compound 0.003 µM): 105%
- viability, T/C (second compound 3.16 µM, first compound 0.00949 µM): 87.3%
- viability, T/C (second compound 3.16 µM, first compound 0.03 µM): 36%
- viability, T/C (second compound 3.16 µM, first compound 0.0949 µM): 20%
- viability, T/C (second compound 3.16 µM, first compound 0.3 µM): 12.4%
- viability, T/C (second compound 10 µM, first compound 0.000949 µM): 88.3%
- viability, T/C (second compound 10 µM, first compound 0.003 µM): 97.7%
- viability, T/C (second compound 10 µM, first compound 0.00949 µM): 79.4%
- viability, T/C (second compound 10 µM, first compound 0.03 µM): 34.4%
- viability, T/C (second compound 10 µM, first compound 0.0949 µM): 22.4%
- viability, T/C (second compound 10 µM, first compound 0.3 µM): 13.7%

SMILES: Nc1ccccc1NC(=O)c1ccc(CNC(=O)OCc2cccnc2)cc1 + CC(CO)NC(=O)c1cc(-c2ccc(Cl)cc2)nn(-c2cnn(C)c2)c1=O
- IC50 (second compound 0.1 µM): 0.481 µM
- IC50 (second compound 0.316 µM): 0.514 µM
- IC50 (second compound 1 µM): 0.512 µM
- IC50 (second compound 3.16 µM): 0.444 µM
- IC50 (second compound 10 µM): 0.397 µM
- viability, T/C [1]: 92%
- viability, T/C [2]: 80.7%
- viability, T/C [3]: 59.7%
- viability, T/C [4]: 32.3%
- viability, T/C [5]: 19.5%
- viability, T/C [6]: 7.46%
- viability, T/C [7]: 95.9%
- viability, T/C [8]: 86.6%
- viability, T/C [9]: 63.2%
- viability, T/C [10]: 31%
- viability, T/C [11]: 18.3%
- viability, T/C [12]: 7.56%
- viability, T/C [13]: 95.2%
- viability, T/C [14]: 85.3%
- viability, T/C [15]: 63.6%
- viability, T/C [16]: 30.9%
- viability, T/C [17]: 17.4%
- viability, T/C [18]: 7.87%
- viability, T/C [19]: 85.9%
- viability, T/C [20]: 77.8%
- viability, T/C [21]: 59.7%
- viability, T/C [22]: 27.9%
- viability, T/C [23]: 14.6%
- viability, T/C [24]: 6.5%
- viability, T/C [25]: 83.9%
- viability, T/C [26]: 81.3%
- viability, T/C [27]: 55.1%
- viability, T/C [28]: 24.6%
- viability, T/C [29]: 12.8%
- viability, T/C [30]: 4.72%

SMILES: O=C(c1cc(Cc2n[nH]c(=O)c3ccccc23)ccc1F)N1CCN(C(=O)C2CC2)CC1 + CC(CO)NC(=O)c1cc(-c2ccc(Cl)cc2)nn(-c2cnn(C)c2)c1=O
- IC50 (second compound 0.1 µM): > 10 µM
- IC50 (second compound 0.316 µM): > 10 µM
- IC50 (second compound 1 µM): > 10 µM
- IC50 (second compound 3.16 µM): > 10 µM
- IC50 (second compound 10 µM): > 10 µM
- viability, T/C [1]: 112%
- viability, T/C [2]: 106%
- viability, T/C [3]: 107%
- viability, T/C [4]: 102%
- viability, T/C [5]: 102%
- viability, T/C [6]: 98.3%
- viability, T/C [7]: 111%
- viability, T/C [8]: 112%
- viability, T/C [9]: 108%
- viability, T/C [10]: 107%
- viability, T/C [11]: 106%
- viability, T/C [12]: 102%
- viability, T/C [13]: 109%
- viability, T/C [14]: 114%
- viability, T/C [15]: 115%
- viability, T/C [16]: 112%
- viability, T/C [17]: 113%
- viability, T/C [18]: 107%
- viability, T/C [19]: 104%
- viability, T/C [20]: 104%
- viability, T/C [21]: 102%
- viability, T/C [22]: 101%
- viability, T/C [23]: 97.5%
- viability, T/C [24]: 94.8%
- viability, T/C [25]: 99.4%
- viability, T/C [26]: 101%
- viability, T/C [27]: 96.6%
- viability, T/C [28]: 99.4%
- viability, T/C [29]: 94.4%
- viability, T/C [30]: 90.7%
